# Measurements taken from US20020028851A1, “Guanylhydrazones and their use to treat inflammatory conditions” (priority 1994, published 2002).
# Assays:
# [1] = Pharmacokinetics by HPLC of serum; assay type: in vivo, rats
# Experimental: Male Sprague-Dawley rats (Harlan Sprague Dawley, Indianapolis, Ind., USA) were anesthetized with ketamine and the right carotid artery cannulated with polyethylene tubing (PE-50). […] At 0, 5, 15, 30, 60, 90, 120, 180, 240, 300, 360 minutes 400 μl of blood was removed, stored at 4° C. for 4 hr, and then centrifuged at 15,000 ×g for 10 min, and the serum layer collected. Sodium azide was added to 0.0l v/v to prevent microbial growth and pentamidine was added to 5 μg/ml. Twenty-five μl of the resulting sample was analyzed by the HPLC method described.
# The HPLC method was applied towards estimating the pharmacokinetic parameters of Compound No. 14 in adult rats receiving a 10 mg/kg dose as a single intra-arterial injection. In these experiments, the solid-phase extraction step was omitted due to the small volume of each sample, and the relatively large amount of Compound No. 14 which was recovered. Typical serum decay curves were obtained (FIG. 17, solid line), and the method of residuals, Gibaldi, M., & Perrier, D., 1982, PHARMACOKINETICS (Marcel Dekker, New York) pp. 433-444, was used to calculate the pharmacokinetic parameters (FIG. 17, dashed lines).
# MIP-1α = assay: Cytokine production by LPS/γIFN-stimulated human PBMC: MIP-1α; assay type: cell-based; conditions: γIFN+LPS, 18 hr
# Description: (§1) Similar results concerning a variety of cytokines in addition to TNF, e.g., IL-6 and Macrophage Inflammatory Proteins-1α and -1β (MIP-1α and MIP-1β) were obtained using human peripheral blood as a source of monocytes. Human peripheral blood mononuclear cells (PBMC) were isolated using “FICOLL®”-based methods and plated in standard 6-well culture plates at a concentration of 10^6/well and allowed to adhere for from 2 hr to overnight whereupon non-adherent cells were washed out and the medium was then replaced with medium containing the compound to be tested. One hour later, the medium was supplemented so as to contain 25 U/ml γIFN and 0.1 μg/ml LPS and the cultures incubated a further 18 hr. The medium was then collected, and cell debris removed by centrifugation. This conditioned supernatant was then assayed for the presence of cytokines using the standard methodologies of L929 cell cytotoxicity bioassay and immunoassay (ELISA).
# TNF [2] = assay: Cytokine production by LPS/γIFN-stimulated human PBMC: TNF; assay type: cell-based; conditions: γIFN+LPS, 18 hr
# Description: as §1
# RAW 264.7 cells = assay: Whole cell inhibition assay for NO (nitrite) output; assay type: cell-based, murine; conditions: for no2/no3 % suppression of induced production: γIFN+LPS, 18 hours
# Experimental: RAW 264.7 cells are plated in microculture wells at 1×10^6/ml in RPMI 1640 with 10% FBS and otherwise standard culture conditions and allowed to adhere for 5 hours. They are then activated with 25 U/ml γIFN and 0.1 μg/ml LPS in the presence of test inhibitors. The urea concentration present in the supernatant media, after 18 hours of culture, is determined by a colorimetric blood urea nitrogen diacetylmonoxime assay performed on an aliquot of the culture supernatant (Sigma Chem. Co., St. Louis, Mo.) and inhibition is expressed as the percentage urea compared to that of a parallel control culture treated identically except that the concentration of added inhibitor is zero.
# The production of nitrite is determined by assay of the same tissue culture supernatant by means of a calorimetric assay. Briefly, 4 parts of test solution containing 1% (w/v) sulfanilamide, 0.1% naphthylethylenediamine di-HCl (Griess Reagent), 2.5% H3PO4 and one part media are mixed, incubated for 10 minutes and the absorbance at 560 nm determined. The nitrite concentrations are interpolated from reference curves prepared using NaNO2.
# Various concentrations of the test compounds are included in the media of the stimulated RAW 264.7 cells in culture. The concentration of urea and/or nitrite after 18 hours of activated culture is determined and compared to the uninhibited control value obtained from at least one parallel culture. The fractional reduction is calculated for each concentration of inhibitor and the IC50 (concentration giving 50% reduction) is interpolated. Compounds were dissolved in media with mild heat (60° C.). Those with limited solubility were dissolved in base. The concentration of stock solutions of those compounds which were not completely soluble was determined by OD280.
# This section describes experiments that measure the concentration of Compound No. 14 needed to inhibit arginine uptake and NO output. The techniques employed were described in section 7.1 supra.
# LD50 = assay type: in vivo
# TNF [3] = assay: TNF production by LPS/γIFN-stimulated RAW 264.7 cells; assay type: cell-based, murine
# Experimental: RAW 264.7 cells were plated in standard 6-well culture plates at a density of 10^6/well and allowed to adhere for from 2 hr to overnight. The medium was then replaced with medium containing the compound to be tested. One hour later, the medium was supplemented so as to contain 25 U/ml γIFN and 0.1 μg/ml LPS and the cultures incubated a further 18 hr. The medium was then collected, and cell debris removed by centrifugation. This conditioned supernatant was then assayed for the presence of TNF using standard methodologies: L929 cell cytotoxicity bioassay, radioimmunoassay or ELISA, and Western blotting with antibodies against murine TNF.
# CHO-TNF tumor = CHO-TNF tumor growth in nude mice; assay type: in vivo; conditions: 0.4 mg/Kg i.p. once daily, two weeks
# Experimental: This section describes in detail the methods and results of an animal model of tumor growth to determine the ability of the compounds of the invention to inhibit tumor growth, and cause regression of tumors. Cells are plated in standard tissue culture flasks in DMEM supplemented with fetal calf serum (10%). Chinese hamster ovary (CHO) cells stably transfected with a mammalian expression vector constitutively secrete human TNF (CHO-TNF). The experiments with the CHO-TNF tumor were performed as follows: on the day of injection into nude mice, cells are harvested and injected intramuscularly (10-15×10^6 cells per animal) into the hindlimb of nu/nu nude mice (20 g body weight). Animals are housed and provided food and water ad libitum. Tumor growth is monitored, and when established tumors are present (during week six) the test compounds are administered daily (0.4 mg/Kg intraperitoneal, once daily). After two weeks the animals are euthanized, the tumor weighed, and measured with a caliper. The CHO-TNF tumor also metastasizes to the skin of these animals; the number of metastases is scored.
# [4] = rats, 10 mg/kg single intra-arterial injection, n=3
structure (smiles),measurement,setting,value
"CC(=NNC(=N)N)c1cc(NC(=O)CCCCCCCCC(=O)Nc2cc(C(C)=NNC(=N)N)cc(C(C)=NNC(=N)N)c2)cc(C(C)=NNC(=N)N)c1.Cl.Cl.Cl.Cl [Compound 14, N,N′-bis(3,5-diacetyl-phenyl)decanediamide tetrakis(amidinohydrazone) tetrahydrochloride]",absorption and bioavailability,[1]; intraperitoneal or oral dosing routes (data not shown),"not rapidly absorbed, and may have a low bioavailability"
same,distribution half-life (t½α),[1]; [4],2.41 ± 0.69 min
same,distribution rate constant (α),[1]; [4],0.31 ± 0.09 min⁻¹
same,elimination half-life (t½β),[1]; [4],5.02 ± 0.00 h
same,elimination rate constant (β),[1]; [4],0.0023 ± 0.0000 min⁻¹
same,total clearance (CL),[1]; [4],5.62 ± 0.47 mL/min
same,volume of distribution (Vd),[1]; [4],2.45 ± 0.21 L
same,peak plasma levels,"[1]; single doses of 0.4-1.0 mg/kg, from pharmacokinetic constants and FIG. 17",> 0.5 µM
same,concentration that effectively inhibited production of MIP-1α,MIP-1α,10 to 20 µM
same,concentration that effectively inhibited production of TNF,TNF [2],10 to 20 µM
same,no2/no3 % suppression of induced production,RAW 264.7 cells; dose 2 μM,0%
same,no2/no3 % suppression of induced production,RAW 264.7 cells; dose 10 μM,69%
same,no2/no3 % suppression of induced production,RAW 264.7 cells; dose 50 μM,100%
same,no2/no3 % suppression of induced production,RAW 264.7 cells; dose 200 μM,100%
same,IC50,"RAW 264.7 cells; exposed from 8 hours after stimulation, NO output during hours 12-24, mean±std. err., n=3, read-out: I.C.50 for NO output",20 ± 2 µM
same,LD50,LD50; given intraperitoneally,50 mg/kg
same,LD50,LD50; given orally,exceeds 1 g/kg
same,reduction of TNF accumulation in the culture medium,"TNF [3]; 10 μM, L929 cell bioassay, 18 hr",more than 99%
same,TNF protein in the medium (Western blot),TNF [3]; 5 and 25 μM,absence of TNF protein
same,# of METASTASES (skin),CHO-TNF tumor,not present
same,reduction in tumor size (animals responding),CHO-TNF tumor,reduction in tumor size in four out of five animals
same,# of METASTASES (skin),CHO-TNF tumor; listed as No. 14,0
same,TUMOR DIMENSION,CHO-TNF tumor; n = 4,207.99 ± 119.90 mm^2
same,TUMOR WEIGHT,CHO-TNF tumor; n = 4,1.628 ± 1.07 g
